≈ marks a conversion by molar mass, not a printed value.
Key:
Assay type in all cases: cell-based
[1] = test system: methicillin sensitive S. aureus ATCC 25923 (MSSA); test: MIC assay, broth microdilution, MSSA; conditions: Staphylococcus aureus, 24 h
Description: (3) methicillin sensitive S. aureus ATCC 25923 (MSSA). This strain was obtained from ATCC and was used as a control.
(§1) The strains were processed according to procedures recommended by ATCC, or procedures that are routinely used. Single colonies of each organism were picked for purification to generate pure working cultures. Prior to each experiment each strain was subcultured on a fresh Mueller-Hinton agar plate (MHA).
(§2) Inocula for the MIC assays were prepared by transferring a tiny portion of one colony from a MHA plate to 2 ml of Mueller-Hinton broth (MHB) such that the estimated cell density was about 10^7 colony forming unit (CFU)/ml. This cell suspension was then further diluted 10-fold (to 10^6 CFU/ml) by transferring the 2 ml cell suspension to 18 ml of MHB. Addition of 50 μl of this dilute cell suspension to 50 μl of growth medium yielded the desired cell density, namely about 5×10^4 CFU/well, or 5×10^5 CFU/ml.
(§3) The MIC value of oxacillin was determined using the broth microdilution procedure recommended by the National Committee of Clinical Laboratory Standards (NCCLS, 2000).
(§4) The MIC experiments were performed in duplicate in 96-well microtiter plates using MHB. A stock solution of 2.6 mg/0.5 ml was prepared in dimethylsulfoxide (DMSO). A total of 8 two-fold serial dilutions were made with DMSO. Initial oxacillin doses used were (μg/ml): 64, 32, 16, 8, 4, 2, 1, and 0.5. Doses were adjusted in the confirmatory experiment, if needed, in order to establish an actual MIC value.
(§5) To each well of a 96 well microtiter plate was added 47.5 μl of MHB. A volume of 2.5 μl of each dilution of oxacillin was then transferred to appropriate wells containing the medium. All wells, except the sterility control wells, were then inoculated with 50 μl of a diluted cell suspension to give a final volume of 100 μl and a final cell density of 5×10^4 CFU/well. The volume in the sterility control wells was adjusted to 100 μl with MHB. A sterile pipette tip was used to mix the contents of each well (one tip was used going from the low to the high concentration in the same column). The microtiter plates were covered with the lids and were placed in large Stratagene Big Blue plates (Cat. # 400041). Four large kimwipes moistened with tap water were placed near the edges of the Stratagene plates to prevent evaporation of the medium. The microtiter plates were incubated for at least 24 hours at 35° C. The plates were then evaluated for growth in each well. Controls included: medium sterility and negative control (medium and bacteria only).
(§6) The procedure used to determine the antimicrobial activity of the compounds of the present invention was identical to the broth microdilution procedure described above with the exception of the preparation of the stock solutions. Stock solution at concentration of 40.96 mg/0.5 ml was prepared in DMSO for each of the compounds. A total of 8 two-fold dilutions were then made in DMSO. A volume of 2.5 μl of each dilution was delivered to appropriate wells. The initial doses used were (μg/ml): 512, 256, 128, 64, 32, 16, 8, and 4.
(§7) A numerical code was used to evaluate the extent of growth as indicated below. • 0: absence of growth • 1: barely visible (faint) growth • 2: fair growth but less than the negative solvent control • 3: growth is equivalent to the negative solvent control.
(§8) The lowest dose at which no visible growth is observed was determined to be the MIC value.
(§9) MIC assays were performed with oxacillin and the four compounds. Each of the compounds was tested at the following 8 doses (μg/ml): 512, 256, 128, 64, 32, 16, 8, and 4. Oxacillin was tested at the following 8 doses (μg/ml): 64, 32, 16, 8, 4, 2, 1, and 0.5.

[2] = test system: methicillin resistant S. aureus ATCC 33591 (MRSA-ATCC); test: Matrix system: oxacillin plus β-lactamase inhibitor, MRSA-ATCC; conditions: for MIC of oxacillin: matrix study
Description: as §5, §7, §8
The effect of the four compounds of the present invention on oxacillin resistance of the MRSA strains was determined using a matrix system. The β-lactamase inhibitors were tested at 5 doses against up to eleven concentrations of oxacillin. […] A 96-well microtiter plate was used for the matrix system. The procedure was identical to that described above for the MIC determination, with the exception that both oxacillin and one each of the β-lactamase inhibitors was added, 2.5 μl each, to the wells prior to addition of the test organisms.
Matrix Study:Oxacillin and Compound FL201 with MRSA-ATCC
Matrix Study: Oxacillin and Compound Fl202 with MRSA-ATCC

[3] = test system: methicillin resistant S. aureus ATCC 33591 (MRSA-ATCC); test: MIC assay, broth microdilution, MRSA-ATCC; conditions: Staphylococcus aureus, 24 h
Description: (1) methicillin resistant S. aureus ATCC 33591 (MRSA-ATCC). This strain was obtained from American Type Culture Collection (ATCC), Manassas, Md.;
as §1, §2, §3, §4, §5, §6, §7, §8, §9

O=C(OCc1ccccc1)c1cc(B(O)O)cc([N+](=O)[O-])c1 [Compound F1201] showed an MIC [1] of 32 µg/mL (≈ 106 µM), an MIC of oxacillin ([2]; with compound 1 μg/ml) of 16 µg/mL and an MIC of oxacillin ([2]; with compound 2 μg/ml) of 2 µg/mL. For the same compound, the MIC of oxacillin ([2]; with compound 4 μg/ml) was 0.5 µg/mL, the MIC of oxacillin ([2]; with compound 8 μg/ml) was less than 0.064 µg/mL and the “extent of growth (numerical code)” value ([2]; oxacillin 0 μg/ml + compound 1 μg/ml) was 3. For the same compound, the “extent of growth (numerical code)” value ([2]; oxacillin 0 μg/ml + compound 2 μg/ml) was 3, the “extent of growth (numerical code)” value ([2]; oxacillin 0 μg/ml + compound 4 μg/ml) was 2 and the “extent of growth (numerical code)” value ([2]; oxacillin 0 μg/ml + compound 8 μg/ml) was 1. For the same compound, the “extent of growth (numerical code)” value ([2]; oxacillin 0 μg/ml + compound 16 μg/ml) was 0, the “extent of growth (numerical code)” value ([2]; oxacillin 0.064 μg/ml + compound 1 μg/ml) was 1 and the “extent of growth (numerical code)” value ([2]; oxacillin 0.064 μg/ml + compound 2 μg/ml) was 1. The “extent of growth (numerical code)” value ([2]; oxacillin 0.064 μg/ml + compound 4 μg/ml) was 1, the “extent of growth (numerical code)” value ([2]; oxacillin 0.064 μg/ml + compound 8 μg/ml) was 0 and the “extent of growth (numerical code)” value ([2]; oxacillin 0.064 μg/ml + compound 16 μg/ml) was 0. For the same compound, the “extent of growth (numerical code)” value ([2]; oxacillin 0.125 μg/ml + compound 1 μg/ml) was 1, the “extent of growth (numerical code)” value ([2]; oxacillin 0.125 μg/ml + compound 2 μg/ml) was 1 and the “extent of growth (numerical code)” value ([2]; oxacillin 0.125 μg/ml + compound 4 μg/ml) was 1. The “extent of growth (numerical code)” value ([2]; oxacillin 0.125 μg/ml + compound 8 μg/ml) was 0, the “extent of growth (numerical code)” value ([2]; oxacillin 0.125 μg/ml + compound 16 μg/ml) was 0 and the “extent of growth (numerical code)” value ([2]; oxacillin 0.25 μg/ml + compound 1 μg/ml) was 1. The “extent of growth (numerical code)” value ([2]; oxacillin 0.25 μg/ml + compound 2 μg/ml) was 1, the “extent of growth (numerical code)” value ([2]; oxacillin 0.25 μg/ml + compound 4 μg/ml) was 1 and the “extent of growth (numerical code)” value ([2]; oxacillin 0.25 μg/ml + compound 8 μg/ml) was 0. For the same compound, the “extent of growth (numerical code)” value ([2]; oxacillin 0.25 μg/ml + compound 16 μg/ml) was 0, the “extent of growth (numerical code)” value ([2]; oxacillin 0.5 μg/ml + compound 1 μg/ml) was 1 and the “extent of growth (numerical code)” value ([2]; oxacillin 0.5 μg/ml + compound 2 μg/ml) was 1. The “extent of growth (numerical code)” value ([2]; oxacillin 0.5 μg/ml + compound 4 μg/ml) was 0, the “extent of growth (numerical code)” value ([2]; oxacillin 0.5 μg/ml + compound 8 μg/ml) was 0 and the “extent of growth (numerical code)” value ([2]; oxacillin 0.5 μg/ml + compound 16 μg/ml) was 0. The “extent of growth (numerical code)” value ([2]; oxacillin 1 μg/ml + compound 1 μg/ml) was 1, the “extent of growth (numerical code)” value ([2]; oxacillin 1 μg/ml + compound 2 μg/ml) was 1 and the “extent of growth (numerical code)” value ([2]; oxacillin 1 μg/ml + compound 4 μg/ml) was 0. The “extent of growth (numerical code)” value ([2]; oxacillin 1 μg/ml + compound 8 μg/ml) was 0, the “extent of growth (numerical code)” value ([2]; oxacillin 1 μg/ml + compound 16 μg/ml) was 0 and the “extent of growth (numerical code)” value ([2]; oxacillin 2 μg/ml + compound 1 μg/ml) was 1. For the same compound, the “extent of growth (numerical code)” value ([2]; oxacillin 2 μg/ml + compound 2 μg/ml) was 0, the “extent of growth (numerical code)” value ([2]; oxacillin 2 μg/ml + compound 4 μg/ml) was 0 and the “extent of growth (numerical code)” value ([2]; oxacillin 2 μg/ml + compound 8 μg/ml) was 0. For the same compound, the “extent of growth (numerical code)” value ([2]; oxacillin 2 μg/ml + compound 16 μg/ml) was 0, the “extent of growth (numerical code)” value ([2]; oxacillin 4 μg/ml + compound 1 μg/ml) was 1 and the “extent of growth (numerical code)” value ([2]; oxacillin 4 μg/ml + compound 2 μg/ml) was 0. For the same compound, the “extent of growth (numerical code)” value ([2]; oxacillin 4 μg/ml + compound 4 μg/ml) was 0, the “extent of growth (numerical code)” value ([2]; oxacillin 4 μg/ml + compound 8 μg/ml) was 0 and the “extent of growth (numerical code)” value ([2]; oxacillin 4 μg/ml + compound 16 μg/ml) was 0. For the same compound, the “extent of growth (numerical code)” value ([2]; oxacillin 8 μg/ml + compound 1 μg/ml) was 1, the “extent of growth (numerical code)” value ([2]; oxacillin 8 μg/ml + compound 2 μg/ml) was 0 and the “extent of growth (numerical code)” value ([2]; oxacillin 8 μg/ml + compound 4 μg/ml) was 0. The “extent of growth (numerical code)” value ([2]; oxacillin 8 μg/ml + compound 8 μg/ml) was 0, the “extent of growth (numerical code)” value ([2]; oxacillin 8 μg/ml + compound 16 μg/ml) was 0 and the “extent of growth (numerical code)” value ([2]; oxacillin 16 μg/ml + compound 1 μg/ml) was 0. For the same compound, the “extent of growth (numerical code)” value ([2]; oxacillin 16 μg/ml + compound 2 μg/ml) was 0, the “extent of growth (numerical code)” value ([2]; oxacillin 16 μg/ml + compound 4 μg/ml) was 0 and the “extent of growth (numerical code)” value ([2]; oxacillin 16 μg/ml + compound 8 μg/ml) was 0. For the same compound, the “extent of growth (numerical code)” value ([2]; oxacillin 16 μg/ml + compound 16 μg/ml) was 0, the “extent of growth (numerical code)” value ([2]; oxacillin 32 μg/ml + compound 1 μg/ml) was 0 and the “extent of growth (numerical code)” value ([2]; oxacillin 32 μg/ml + compound 2 μg/ml) was 0. For the same compound, the “extent of growth (numerical code)” value ([2]; oxacillin 32 μg/ml + compound 4 μg/ml) was 0, the “extent of growth (numerical code)” value ([2]; oxacillin 32 μg/ml + compound 8 μg/ml) was 0 and the “extent of growth (numerical code)” value ([2]; oxacillin 32 μg/ml + compound 16 μg/ml) was 0. The “extent of growth (numerical code)” value ([2]; oxacillin 64 μg/ml + compound 1 μg/ml) was 0, the “extent of growth (numerical code)” value ([2]; oxacillin 64 μg/ml + compound 2 μg/ml) was 0 and the “extent of growth (numerical code)” value ([2]; oxacillin 64 μg/ml + compound 4 μg/ml) was 0. For the same compound, the “extent of growth (numerical code)” value ([2]; oxacillin 64 μg/ml + compound 8 μg/ml) was 0, the “extent of growth (numerical code)” value ([2]; oxacillin 64 μg/ml + compound 16 μg/ml) was 0 and the MIC [3] was 32 µg/mL (≈ 106 µM).
